Results reported in patent US12606559B2, “JAK inhibitor compounds, methods for synthesizing same and use thereof” (GALDERMA HOLDING SA, priority 2020, dated 2026).
“Also recorded” adds a separate entry of the source. Like-named read-outs stand apart in the source and are kept apart here.

Key:
[1] = Human skin ex vivo: flux through skin and dermis concentration (Franz cells); format: in vitro ADME; details: PG/H2O cream 1 mg/mL
[2] = test system: IL-6 induced Phospho-STAT3 (Tyr705) in TF-1 cells; assay: In vitro cellular pSTAT3 assay, IL-6 stimulated TF-1 cells; format: cell-based; details: Homo sapiens
[3] = Intrinsic clearance in mouse hepatocytes; format: in vitro ADME, male balb-c mouse; details: 2.5 μM
Method: (§1) The intrinsic clearance was assessed in cryopreserved Hepatocytes obtained by Human livers donors of mix gender pooled together, male balb-c mouse, male Wistar Han rats and male Göttingen minipig, by looking at the parent compound disappearance. The incubations were performed using a final concentration of viable cells of 1 million/ml (viability above 70%) and test item of 2.5 μM. Incubations were followed up to 2 h. Aliquotes were withdrawn at different time points and reaction quenched with acetonitrile. After centrifugation the supernatant was analyzed by HPLC/MS to quantify the remaining amount of parent in comparison with time 0. The clearance was calculated by fitting the log of the percentage remaining with Graphpad Prism ver.7.

[4] = Systemic level in PD/IL6 mouse topical dose response; details: topical 10 mM, PG/Acetone/Transcutol
[5] = Protein binding analysis (RED), rat plasma; format: in vitro ADME, male Wistar Han rat; details: 5 μM, RED 4 h
Method: (§2) The protein binding was assessed in plasma of Human, male balb-c mice, male Wistar Han rat, male Gottingen minipig by rapid equilibrium dialysis (RED) devices. After the plasma and buffer phosphate 50 mM pH7.4 were equilibrated at 37° C., the compound was added to plasma to reach a final concentration of 5 μM. An aliquot of plasma was withdrawn immediately. Equilibration under mild agitation was continued for 4 h. The plasma and buffer were sampled and samples were quenched with 4 volumes of acetonitrile and centrifuged. Supernatant was quantified in HPLC/MS/MS to calculate the recovery and the percentage of compound dissolved in the buffer (unbound) and bound to plasma proteins.

[6] = Intrinsic clearance in human hepatocytes; format: in vitro ADME; details: 2.5 μM
Method: as §1

[7] = Protein binding analysis (RED), mouse plasma; format: in vitro ADME, male balb-c mice; details: 5 μM, RED 4 h
Method: as §2

[8] = In vivo pharmacokinetic analysis in rat, iv; set-up: species or system male Wistar Han rat; details: iv 1 mg/kg
Method: (§3) One male Wistar Han rat. Compound was administered intravenously to fed animal at a target dose of 1 mg/kg, dose volume: 2 mL/kg, in DMSO/hydroxypropyl-beta-cyclodextrin 20% in phosphate buffer 60 mM pH 7 (5:95). Blood samples were collected at various time points. Blood samples were then assayed using a method based upon protein precipitation with acetonitrile followed by LC/MS/MS analysis. Non-compartmental methods were used for pharmacokinetic analysis of blood concentration versus time data

[9] = Protein binding analysis (RED), human plasma; format: in vitro ADME; details: 5 μM, RED 4 h
Method: as §2

[10] = Kinetic aqueous solubility; format: physicochemical
[11] = test system: 44 targets (binding and enzyme/uptake assays); assay: CEREP Safety Screen-44; details: 10 μM
Method: An in vitro pharmacology assay was conducted to assess the capability of the compounds to interact with different pharmacological targets when tested at 10 μM in different binding and enzyme/uptake assays. The included targets are indicative of potential effects in major organs and drug-drug interactions.
Compound binding was calculated as a % inhibition of the binding of a radioactively labelled ligand specific for each target. […] […].

[12] = test system: IL6 signalling in hWB; assay: hWB assay, IL6; format: cell-based, human; details: Homo sapiens, read-out: hWB assay: IC50 IL6
[13] = In vivo pharmacokinetic analysis in minipig, iv; set-up: species or system male Göttingen minipigs; details: iv 1 mg/kg
Method: as §3, with “Three” for “One”, “Göttingen minipigs.” for “Wistar Han rat.”, “animals” for “animal”, “volume 1” for “volume: 2”, “DMSO: hydroxypropyl-β-cyclodextrin” for “DMSO/hydroxypropyl-beta-cyclodextrin”, “data.” for “data”

[14] = Intrinsic clearance in rat hepatocytes; format: in vitro ADME, male Wistar Han rats; details: 2.5 μM
Method: as §1

[15] = Thermodynamic solubility PG_H2O pH 6 2/8; format: physicochemical; details: amorphous, no cristalline material available
[16] = Intrinsic clearance in minipig hepatocytes; format: in vitro ADME, male Göttingen minipig; details: 2.5 μM
Method: as §1

## N#CC[C@H](C1CCCC1)n1cc(-c2ncnc3[nH]ccc23)cn1 [Ruxolitinib, reference compound]
[1]
  measured flux 6-24 hr: 5.3 ng/cm^2/hr
[2]; TF-1, read-out: Cellular Assay: IC50 IL6
  IC50: 8 nM
[2]; TF-1, read-out: Free IC50
  IC50: 200 nM
[3]
  Intr. Clear. mheps: 150 microL/min/10 6 cells
[4]
  PD/IL6 mouse top DR 0.01-10 mM: Systemic level @ 10 mM - 2 hrs: 81 nM
[5]
  rFU: 13%
[6]
  Intr. Clear. h heps: 4.4 microL/min/10 6 cells
[7]
  mFU: 7.7%
[8]
  iv PK rat: Cl (value in brackets, %): 51%
[9]
  hFU: 4%
[10]
  Kinetic aq sol: 232/ND (no cristalline microM
[11]
  Safety panel (Cerep): 44 targets % inh @ 10 microM, Nb of targets > 50% inh: 0/44
[12]
  IC50: 6900 nM
[13]
  iv PK minipig: Cl (value in brackets, %): 68%
[14]
  Intr. Clear. rheps: 300 microL/min/10 6 cells
[15]
  Sol PG_H2O pH 6 2/8, amorphous material: material available-1 mM; also recorded: (0.3 mg/mL)-amorphous)
[16]
  Intr. Clear. minipig heps: 141 microL/min/10 6 cells
